Assay results: PubChem BioAssay (NCI)
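In this assay, cells in 96-well plates receive the compound at five concentrations for 48 hours. Endpoints are linearly interpolated between the surrounding concentrations. TGI is the concentration that stops growth completely.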

How the values were obtained:
Assay in all cases: growth of human tumour cells (NCI), 48 h
SK-MEL-2 melanoma = tested on: SK-MEL-2 melanoma
OVCAR-5 ovarian = tested on: OVCAR-5 ovarian
HT29 colon = tested on: HT29 colon
EKVX NSCLC = tested on: EKVX NSCLC
NCI/ADR-RES ovarian = tested on: NCI/ADR-RES ovarian
T-47D breast = tested on: T-47D breast
HOP-92 NSCLC = tested on: HOP-92 NSCLC
M14 melanoma = tested on: M14 melanoma
RXF 393 renal = tested on: RXF 393 renal
IGROV1 ovarian = tested on: IGROV1 ovarian
SW-620 colon = tested on: SW-620 colon
HCC-2998 colon = tested on: HCC-2998 colon
OVCAR-4 ovarian = tested on: OVCAR-4 ovarian
PC-3 prostate = tested on: PC-3 prostate
SF-295 CNS = tested on: SF-295 CNS
RPMI-8226 leukemia = tested on: RPMI-8226 leukemia
A549 NSCLC = tested on: A549 NSCLC
ACHN renal = tested on: ACHN renal
CAKI-1 renal = tested on: CAKI-1 renal
HCT-15 colon = tested on: HCT-15 colon
HS 578T breast = tested on: HS 578T breast
UACC-62 melanoma = tested on: UACC-62 melanoma
SK-MEL-28 melanoma = tested on: SK-MEL-28 melanoma
U251 CNS = tested on: U251 CNS
NCI-H23 lung = tested on: NCI-H23 lung
SF-268 CNS = tested on: SF-268 CNS
HL-60(TB) leukemia = tested on: HL-60(TB) leukemia
SK-MEL-5 melanoma = tested on: SK-MEL-5 melanoma
NCI-H460 lung = tested on: NCI-H460 lung
SF-539 CNS = tested on: SF-539 CNS
MDA-MB-435 = tested on: MDA-MB-435
UO-31 renal = tested on: UO-31 renal
MDA-MB-231 breast = tested on: MDA-MB-231 breast
TK-10 renal = tested on: TK-10 renal
UACC-257 melanoma = tested on: UACC-257 melanoma
A498 renal = tested on: A498 renal
MCF7 breast = tested on: MCF7 breast
MOLT-4 leukemia = tested on: MOLT-4 leukemia
NCI-H522 lung = tested on: NCI-H522 lung
CCRF-CEM leukemia = tested on: CCRF-CEM leukemia
DU-145 prostate = tested on: DU-145 prostate
SK-OV-3 ovarian = tested on: SK-OV-3 ovarian
MALME-3M melanoma = tested on: MALME-3M melanoma
SR leukemia = tested on: SR leukemia
NCI-H226 lung = tested on: NCI-H226 lung
COLO 205 colon = tested on: COLO 205 colon
OVCAR-3 ovarian = tested on: OVCAR-3 ovarian
SNB-19 CNS = tested on: SNB-19 CNS
HCT-116 colon = tested on: HCT-116 colon
BT-549 breast = tested on: BT-549 breast
HOP-62 NSCLC = tested on: HOP-62 NSCLC
K-562 leukemia = tested on: K-562 leukemia
786-0 renal = tested on: 786-0 renal
OVCAR-8 ovarian = tested on: OVCAR-8 ovarian
LOX IMVI melanoma = tested on: LOX IMVI melanoma
SN12C renal = tested on: SN12C renal
KM12 colon = tested on: KM12 colon

Measured: TGI

CC(=O)OC1CN2CCC1CC2 (configuration not stated)
> 100 µM: SK-MEL-2 melanoma | OVCAR-5 ovarian | HT29 colon | EKVX NSCLC | NCI/ADR-RES ovarian | T-47D breast | HOP-92 NSCLC | M14 melanoma | RXF 393 renal | IGROV1 ovarian | SW-620 colon | HCC-2998 colon | OVCAR-4 ovarian | PC-3 prostate | SF-295 CNS | RPMI-8226 leukemia | A549 NSCLC | ACHN renal | CAKI-1 renal | HCT-15 colon | HS 578T breast | UACC-62 melanoma | SK-MEL-28 melanoma | U251 CNS | NCI-H23 lung | SF-268 CNS | HL-60(TB) leukemia | SK-MEL-5 melanoma | NCI-H460 lung | SF-539 CNS | MDA-MB-435 | UO-31 renal | MDA-MB-231 breast | TK-10 renal | UACC-257 melanoma | A498 renal | MCF7 breast | MOLT-4 leukemia | NCI-H522 lung | CCRF-CEM leukemia | DU-145 prostate | SK-OV-3 ovarian | MALME-3M melanoma | SR leukemia | NCI-H226 lung | COLO 205 colon | OVCAR-3 ovarian | SNB-19 CNS | HCT-116 colon | BT-549 breast | HOP-62 NSCLC | K-562 leukemia | 786-0 renal | OVCAR-8 ovarian | LOX IMVI melanoma | SN12C renal | KM12 colon
